Where a name gives a salt, the structure may show the parent alone. Read-outs that look alike come from different tables or passages of the source.
What was measured:
Assay in all cases: cells
H69AR = assay type: cell-based, human; settings: H69AR
U937gtb = assay type: cell-based, human
U937vcr = assay type: cell-based, human
CEM/S = assay type: cell-based, human
H69 = assay type: cell-based, human
8226Dox40 = assay type: cell-based, human
ACHN = assay type: cell-based, human; settings: ACHN
[1] = test system: panel of ten human tumour cell lines; assay type: cell-based; settings: read-out: MEAN IC50
CEM/R = assay type: cell-based, human
8226LR5 = assay type: cell-based, human
U-1906E = assay type: cell-based
NCI-H23 = assay type: cell-based; settings: Homo sapiens, NCI-H23
U1690 = assay type: cell-based
U-1810 = assay type: cell-based; settings: U-1810
U-1568 = assay type: cell-based
[2] = test system: hematological fresh human tumour specimens (PHTC); settings: 72 h, read-out: Tumour cell survival index % Hematological
NCI-H157 = assay type: cell-based; settings: Homo sapiens, NCI-H157
[3] = test system: solid tumour fresh human tumour specimens (PHTC); settings: 72 h, read-out: Tumour cell survival index % Solid
U1906L = assay type: cell-based
NCI-H125 = assay type: cell-based; settings: Homo sapiens, NCI-H125
NCI-H611 = assay type: cell-based
8226S = assay type: cell-based, human
U1285 = assay type: cell-based
U-1752 = assay type: cell-based
[4] = doxorubicin resistance, 72 hours incubation, read-out: IC50
[5] = U937gtb, lymphoma, 72 hours incubation, read-out: IC50
[6] = U937vcr, vincristine resistance, 72 hours incubation, read-out: IC50
[7] = CEM/S, 72 hours incubation, read-out: IC50
[8] = H69, small cell lung cancer, 72 hours incubation, read-out: IC50
[9] = 8226Dox40, doxorubicin resistance, 72 hours incubation, read-out: IC50
[10] = primary resistant renal carcinoma, 72 hours incubation, read-out: IC50
[11] = CEM/R, 72 hours incubation, read-out: IC50
[12] = 8226LR5, melphalan resistance, 72 hours incubation, read-out: IC50
[13] = 8226S, myeloma, 72 hours incubation, read-out: IC50

Row | Compound | IC50 (H69AR; [4]) [nM] | IC50 (U937gtb; [5]) [nM] | IC50 (U937vcr; [6]) [nM] | IC50 (CEM/S; [7]) [nM] | IC50 (H69; [8]) [nM] | IC50 (8226Dox40; [9]) [nM] | IC50 (ACHN; [10]) [nM] | IC50 ([1]; mean over the ten cell lines) [nM] | IC50 (CEM/R; [11]) [nM] | IC50 (8226LR5; [12]) [nM] | IC50 (U-1906E) [nM] | IC50 (NCI-H23) [nM] | IC50 (U1690) [nM] | IC50 (U-1810) [nM] | IC50 (U-1568) [nM] | IC50 (NCI-H157) [nM] | IC50 (U1906L) [nM] | IC50 (NCI-H125) [nM] | IC50 (NCI-H611) [nM] | IC50 (U1285) [nM] | further results
1 | CCOC(=O)[C@H](Cc1ccc(N(CCCl)CCCl)cc1)NC(=O)[C@@H](N)Cc1ccc(N(CCCl)CCCl)cc1 [JV27, L-Melphalanyl-L-melphalan ethyl ester hydrochloride] | 1400 | 160 | 260 | 140 | 290 | 1580 | 210 | 760 | 100 | 2460 | – | – | – | – | – | – | – | – | – | – | –
2 | COc1cccc2c1C(=O)c1c(O)c3c(c(O)c1C2=O)C[C@@](O)(C(=O)CO)C[C@@H]3O[C@H]1C[C@H](N)[C@H](O)[C@H](C)O1 [Doxorubicin, doxorubicin] | – | – | – | – | – | – | – | – | – | – | 440 | 140 | 2210 | 22800 | 183000 | 200 | 920 | 500 | 183000 | 520 | IC50 (H69AR; Homo sapiens, 72 h): 11600 nM; IC50 (U937gtb; Homo sapiens, U-937/GTB, 72 h): 110 nM; IC50 (U937vcr; Homo sapiens, 72 h): 420 nM; IC50 (CEM/S; Homo sapiens, 72 h): 180 nM; IC50 (H69; Homo sapiens, NCI-H69, 72 h): 1660 nM; IC50 (8226Dox40; Homo sapiens, 72 h): 4970 nM; IC50 (ACHN; Homo sapiens, 72 h): 14200 nM; IC50 ([1]; Homo sapiens): 3510 nM; viability at 0.92 µM [2]: 29%; viability at 0.92 µM [3]: 97%; IC50 (CEM/R; Homo sapiens, 72 h): 1310 nM; IC50 (8226S; Homo sapiens, 72 h): 130 nM; IC50 (U-1752): 420 nM; IC50 (8226LR5; Homo sapiens, 72 h): 550 nM
3 | O=c1[nH]cc(F)c(=O)[nH]1 [Example 5-FU, 5-FU, reference compound] | 769000 | – | 572000 | 57400 | 769000 | 60600 | 769000 | 321000 | 44500 | 5300 | – | – | – | – | – | – | – | – | – | – | IC50 (8226S; [13]): 75600 nM
4 | CC(=O)O[C@@]12CO[C@@H]1C[C@H](O)[C@@]1(C)C(=O)[C@H](O)C3=C(C)[C@@H](OC(=O)[C@H](O)[C@@H](NC(=O)OC(C)(C)C)c4ccccc4)C[C@@](O)([C@@H](OC(=O)c4ccccc4)[C@H]21)C3(C)C [Docetaxel, docetaxel] | – | – | – | – | – | – | – | – | – | – | 100 | 1500 | 7700 | 100 | 5940 | 100 | 100 | 160 | 1100 | 100 | viability at 6.2 µM [3]: 67%; IC50 (U-1752): 460 nM
5 | CC[C@@]1(O)C(=O)OCc2c1cc1n(c2=O)Cc2cc3c(CN(C)C)c(O)ccc3nc2-1 [Topotecan, topotecan, reference compound] | – | – | – | – | – | – | – | – | – | – | 80 | 5840 | 920 | 80 | 115000 | 4330 | 120 | 236000 | 236000 | 170 | IC50 (H69AR; Homo sapiens, 72 h): 180000 nM; IC50 (U937gtb; Homo sapiens, U-937/GTB, 72 h): 20 nM; IC50 (U937vcr; Homo sapiens, 72 h): 20 nM; IC50 (CEM/S; Homo sapiens, 72 h): 20 nM; IC50 (H69; Homo sapiens, NCI-H69, 72 h): 1720 nM; IC50 (8226Dox40; Homo sapiens, 72 h): 590 nM; IC50 (ACHN; Homo sapiens, 72 h): 16300 nM; IC50 ([1]; Homo sapiens): 20000 nM; IC50 (CEM/R; Homo sapiens, 72 h): 20 nM; IC50 (8226S; Homo sapiens, 72 h): 870 nM; IC50 (U-1752): 28000 nM; IC50 (8226LR5; Homo sapiens, 72 h): 210 nM
6 | COc1cc([C@@H]2c3cc4c(cc3[C@@H](O[C@@H]3O[C@@H]5CO[C@@H](C)O[C@H]5[C@H](O)[C@H]3O)[C@H]3COC(=O)[C@H]23)OCO4)cc(OC)c1O [Etoposide, etoposide] | – | – | – | – | – | – | – | – | – | – | – | – | – | – | – | – | – | – | – | – | viability at 8.5 µM [2]: 47%; viability at 8.5 µM [3]: 81%
7 | CCOC(=O)[C@H](Cc1ccc(N)cc1)NC(=O)[C@@H](N)Cc1ccc(N(CCCl)CCCl)cc1 [JV29, L-Me3phalariyl-L-p-aminophenylalanine ethyl ester hydrochloride] | 460 | 150 | 190 | 60 | 90 | 2010 | 190 | 680 | 30 | 2730 | – | – | – | – | – | – | – | – | – | – | IC50 (8226S; [13]): 900 nM
8 | CCOC(=O)[C@H](Cc1ccc(OC)cc1)NC(=O)[C@@H](N)Cc1ccc(N(CCCl)CCCl)cc1 [JV25, L-Melphalanyl-L-p-methoxyphenylalanine ethyl ester hydrochloride] | 280 | 150 | 160 | 40 | 40 | 1200 | 200 | 460 | 20 | 1820 | – | – | – | – | – | – | – | – | – | – | IC50 (8226S; [13]): 650 nM
